Columns and labels:
[1] = system: symmetric dimethyl arginine (SDMA); experiment: In vivo target inhibition: SDMA ELISA in tumor samples of the Mia PaCa-2 xenograft mouse model
Experimental: Quantitative reduction levels of symmetric dimethyl arginine (SDMA) in tumor samples harvested from a subcutaneous xenograft mouse model of Mia PaCa-2 were measured by enzyme-linked immunosorbent assay (ELISA).
Reagents: Bradford solution (catalog no. 500-0006) was purchased from Bio-rad (USA). SDMA antibody (catalog no. 13222s) was purchased from Cell signaling Technology (USA). SmD3 antibody (catalog no. ap12451a) was purchased from Abgent (USA). Secondary antibody (catalog no. ab6721) and TMB substrate (catalog no. ab210902) were purchased from Abcam (UK).
Experimental procedure: Tumor tissue transplanted into mice was extracted, cells were lysed, and quantified with Bradford solution. […] of protein per sample was diluted with carbonate-bicarbonate buffer, dispensed into a 96-well plate, and reacted at room temperature for 2 hours. After washing three times with phosphate-buffered saline (PBST) containing 0.05% Tween-20, 200 μL of PBST containing 5% bovine serum albumin (BSA) (BSA-PBST) was added, and reacted at room temperature for 2 hours. After washing three times with PBST, 100 μL of SDMA antibody and SmD3 antibody were diluted in BSA-PBST, each was dispensed, and reacted overnight at 4° C. After washing three times with PBST on next day, 100 μL of secondary antibody diluted in BSA-PBST was added, and reacted at room temperature for 1 hour. After washing three times with PBST, 100 μL of TMB substrate was added and reacted at room temperature for 10-20 minutes, and 100 μL of 1N sulfuric acid solution was added to terminate the reaction. Then, the degree of SDMA inhibition by the compound was calculated by measuring the absorbance at 450 nm.

[2] = system: human pancreatic cancer cells CAPAN-1; experiment: Subcutaneous xenograft mouse model of CAPAN-1 pancreatic cancer cells, tumor volume; type: in vivo; settings: Day 31, solvent group 1,017 mm^3
Experimental: For in vivo efficacy studies in a subcutaneous xenograft mouse model of human pancreatic cancer cells CAPAN-1, co-administration of compound-87 as a PRMT5 inhibitor according to one example of the present invention and Gemcitabine as an anti-metabolite of a chemotherapeutic agent, was performed.
To produce a pancreatic cancer xenograft model, 5 million CAPAN-1 cells were injected subcutaneously into the right flank of female nude mice, and tumor growth was monitored.
To evaluate the anticancer effect, when the tumor volume reached approximately 185 mm^3 on average, the mice were divided into six groups. The all group included the solvent-treated group (vehicle group), the compound-87 monotherapy group (25 mg/kg or 50 mg/kg), the gemcitabine monotherapy group (50 mg/kg), combination therapy group of the compound-87 (25 mg/kg or 50 mg/kg), and the gemcitabine. The vehicle A group or the compound-87 treatment group was administered orally on a 3-day administration/4-day non-administration schedule, and the vehicle B group or the gemcitabine treatment group was administered intraperitoneally twice a week.

DNA damage repair genes = experiment: Gene expression analysis in patient-derived xenograft mice (CTG-2534); type: in vivo, mouse; settings: compound-87 oral, 3-day on/4-day off; tumors taken when solvent group reached 955 mm^3
From the text: In order to analyze changes in gene expression by PRMT5 inhibitor treatment according to one example of the present invention, patient-derived cells CTG-2534 were xenografted into mice subcutaneously, and then the mice were divided into groups, when the tumor volume reached 80 to 300 mm^3. The solvent-treated group (vehicle group) or the compound-87 treatment group was orally administered on a 3-day on/4-day off schedule. When the tumor volume of the solvent-treated group reached 955 mm^3, the tumors were separated and performed for gene expression analysis.
FIG. 30 is a heat map showing the change in expression of DNA damage repair genes using Z-score values for Log2FPKM, after compound-87 treatment were performed in patient-derived lung cancer […] cell xenograft mice. In FIG. 30, the solvent-treated group is shown in red (positive value), and the compound-87-treated group is shown in blue (negative value).

[3] = system: human small cell lung cancer cells NCI-H1048; experiment: Subcutaneous xenograft mouse model of NCI-H1048 small cell lung cancer cells, tumor growth inhibition; type: in vivo; settings: day 23
Experimental: For in vivo efficacy study in a subcutaneous xenograft mouse model of human small cell lung cancer cells NCI-H1048, co-administration of compound-87 as a PRMT5 inhibitor according to an example of the present invention and cisplatin as an alkylating agent of a chemotherapeutic agent, was performed. To produce a small cell lung cancer xenograft model, 10 million of NCI-H1048 cells were injected subcutaneously into the right flank of female nude mice, and tumor growth was monitored.
To evaluate the anticancer effect, when the tumor volume reached approximately 162 mm^3 on average, the mice were divided into four groups. The all group included a solvent-treated group (Vehicle 1 (Compound-87)+Vehicle 2 (cisplatin) group), a Compound-87 monotherapy group (50 mg/kg), a cisplatin monotherapy group (4 mg/kg), and combination therapy group of Compound-87 and cisplatin. The Compound-87 treatment group was administered orally on a 3-day administration/4-day non-administration schedule, and cisplatin was administered intraperitoneally once a week for 22 days (Day 1-Day 23). All mice were euthanized on Day 22 (Day 23).

[4] = system: CTG-1932, a human non-small cell lung cancer patient-derived cell line; experiment: Subcutaneous xenograft mouse model of patient-derived CTG-1932 non-small cell lung cancer, tumor growth inhibition; type: in vivo; settings: day 9
Experimental: For in vivo efficacy studies in a subcutaneous xenograft mouse model of CTG-1932, a human non-small cell lung cancer patient-derived cell line, combination therapy of compound-87 as a PRMT5 inhibitor according to one example of the present invention and with paclitaxel as a chemotherapy agent, was performed at Champions Oncology (USA).
To produce a non-small cell lung cancer xenograft model, CTG-1932 tumor stock was grown and harvested from primary mice and then transplanted subcutaneously into the left flank of immunocompromised female mice as a 5×5×5 mm^3 tumor fragment. When the tumor volume reached approximately 150-300 mm^3, the mice were separated into four groups of 10 each. All group consisted of a solvent-treated group (vehicle group), a compound-87 monotherapy group (50 mg/kg, oral administration, 3 days on/4 days off), a paclitaxel monotherapy group (20 mg/kg, intraperitoneal administration once a week), and combination treatment group of compound-87 (50 mg/kg, oral administration, 3 days on/4 days off) and paclitaxel (20 mg/kg, intraperitoneal administration once a week). tumor volume and body weight were measured twice a week.

CN1CCC(Oc2ccc3c(c2)OCCN(C[C@H](O)CN2CCc4ccccc4C2)C3=O)CC1 [Compound-87, 4-[(2R)-3-(3,4-dihydro-1H-isoquinolin-2-yl)-2-hydroxy-propyl]-8-[(1-methyl-4-piperidyl)oxy]-2,3-dihydro-1,4-benzoxazepin-5-one]
SDMA amount in tumor samples compared to the vehicle group ([1]; 25 mg/kg Compound-87, 3 days on/4 off for 24 days): 37.4% | SDMA amount in tumor samples compared to the vehicle group ([1]; 50 mg/kg Compound-87, 3 days on/4 off for 24 days): 27.7% | inhibition at 25 mg/kg ([1]; Mus musculus, MIA PaCa-2, 25 mg/kg Compound-87, 3 days on/4 off for 24 days): 62.6% | inhibition at 50 mg/kg ([1]; Mus musculus, MIA PaCa-2, 50 mg/kg Compound-87, 3 days on/4 off for 24 days): 72.3% | tumor volume ([2]; Compound-87 25 mg/kg oral (3 days on/4 off) in combination with gemcitabine 50 mg/kg i.p. twice a week): 379 mm^3 | tumor volume ([2]; Compound-87 50 mg/kg oral (3 days on/4 off) in combination with gemcitabine 50 mg/kg i.p. twice a week): 235 mm^3 | change in expression of DNA damage repair genes (Z-score of Log2FPKM, heat map FIG. 30) (DNA damage repair genes): reduced expression of DNA damage repair genes | partial response ([3]; compound-87 50 mg/kg oral combined with cisplatin 4 mg/kg i.p., partial response in all mice): 60.6% | tumor growth inhibition rate ([3]; compound-87 alone, 50 mg/kg oral, 3-day administration/4-day non-administration): 62.0% | tumor growth inhibition compared to the solvent-treated group ([4]; compound-87 50 mg/kg oral single agent, 3 days on/4 off, not significant): 39% | tumor growth inhibition compared to the solvent-treated group ([4]; compound-87 50 mg/kg oral together with paclitaxel 20 mg/kg i.p. once a week): 89%

— patent US20260137700A1, “PHARMACEUTICAL COMBINATION OF PRMT5 INHIBITOR AND DNA DAMAGE-INDUCING SUBSTANCE” (SK Biopharmaceuticals Co., Ltd., priority 2022, published 2026)
